Experiments:
Carboplatin = compound: C1CC(C1)(C(=O)[O-])C(=O)[O-].N.N.[Pt+2] [Carboplatin]; settings: max 10 µM
Outline: (§1)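 Cancer cell lines were plated in 1536-well plates in 7.5 μl of DMEM/F12 or RPMI with 10% FBS and kept 24 hours at 37°C and 5% CO2 before 72 hours of dosing, with final DMSO typically 0.2%. CellTiter-Glo 2.0 luminescence measured viability, scaled between blank-well and DMSO-well means. Dose responses were fitted to a two-parameter logistic curve with a non-linear mixed effects model. This fit gives the single-agent IC50.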

AZD5363 = compound: C1CN(CCC1(C(=O)N[C@@H](CCO)C2=CC=C(C=C2)Cl)N)C3=NC=NC4=C3C=CN4 [AZD5363]; settings: max 10 µM
Outline: as §1

AZD1775 = compound: C=CCn1c(=O)c2cnc(Nc3ccc(N4CCN(C)CC4)cc3)nc2n1-c1cccc(C(C)(C)O)n1 [AZD1775]; settings: max 3 µM
Outline: as §1

Trametinib = compound: CC(=O)Nc1cccc(-n2c(=O)n(C3CC3)c(=O)c3c(Nc4ccc(I)cc4F)n(C)c(=O)c(C)c32)c1 [Trametinib]; settings: max 1 µM
Outline: as §1

Paclitaxel = compound: CC(=O)O[C@H]1C(=O)[C@@]2(C)[C@H]([C@H](OC(=O)c3ccccc3)[C@]3(O)C[C@H](OC(=O)[C@H](O)[C@@H](NC(=O)c4ccccc4)c4ccccc4)C(C)=C1C3(C)C)[C@]1(OC(C)=O)CO[C@@H]1C[C@@H]2O [Paclitaxel]; settings: max 3 µM
Outline: as §1

Palbociclib = compound: CC(=O)c1c(C)c2cnc(Nc3ccc(N4CCNCC4)cn3)nc2n(C2CCCC2)c1=O [Palbociclib]; settings: max 10 µM
Outline: as §1

AZD1390 = compound: CC(C)n1c(=O)n(C)c2cnc3cc(F)c(-c4ccc(OCCCN5CCCCC5)nc4)cc3c21 [AZD1390]; settings: max 0.3 µM
Outline: as §1

Venetoclax = compound: CC1(C)CCC(CN2CCN(c3ccc(C(=O)NS(=O)(=O)c4ccc(NCC5CCOCC5)c([N+](=O)[O-])c4)c(Oc4cnc5[nH]ccc5c4)c3)CC2)=C(c2ccc(Cl)cc2)C1 [Venetoclax]; settings: max 1 µM
Outline: as §1

Dasatinib = compound: CC1=C(C(=CC=C1)Cl)NC(=O)C2=CN=C(S2)NC3=CC(=NC(=N3)C)N4CCN(CC4)CCO [Dasatinib]; settings: max 2 µM
Outline: as §1

SG3199 = compound: CC1=CN2[C@@H](C1)C=NC3=CC(=C(C=C3C2=O)OC)OCCCCCOC4=C(C=C5C(=C4)N=C[C@@H]6CC(=CN6C5=O)C)OC [SG3199]; settings: max 0.001 µM
Outline: as §1

AZD2811 = compound: CCN(CCO)CCCOc1ccc2c(Nc3cc(CC(=O)Nc4cccc(F)c4)[nH]n3)ncnc2c1 [AZD2811]; settings: max 1 µM
Outline: as §1

SN-38 = compound: CCc1c2c(nc3ccc(O)cc13)-c1cc3c(c(=O)n1C2)COC(=O)[C@]3(O)CC [SN-38]; settings: max 0.3 µM
Outline: as §1

AZD0156 = compound: CN(C)CCCOc1ccc(-c2ccc3ncc4c(c3c2)n(C2CCOCC2)c(=O)n4C)cn1 [AZD0156]; settings: max 3 µM
Outline: as §1

AZD4320 = compound: CN(CC[C@H](CSC1=CC=CC=C1)NC2=C(C=C(C=C2)S(=O)(=O)NC(=O)C3=CC=C(C=C3)N4CCC(CC4)[C@H](C5=CC=CC=C5C6=CC=C(C=C6)Cl)O)S(=O)(=O)C(F)(F)F)CCO [AZD4320]; settings: max 1 µM
Outline: as §1

Alisertib = compound: COc1cc(Nc2ncc3c(n2)-c2ccc(Cl)cc2C(c2c(F)cccc2OC)=NC3)ccc1C(=O)O [Alisertib]; settings: max 10 µM
Outline: as §1

Etoposide = compound: COc1cc([C@@H]2c3cc4c(cc3[C@@H](O[C@@H]3O[C@@H]5CO[C@@H](C)O[C@H]5[C@H](O)[C@H]3O)[C@H]3COC(=O)[C@H]23)OCO4)cc(OC)c1O [Etoposide]; settings: max 10 µM
Outline: as §1

Gefitinib = compound: COc1cc2ncnc(Nc3ccc(F)c(Cl)c3)c2cc1OCCCN1CCOCC1 [Gefitinib]; settings: max 10 µM
Outline: as §1

Prexasertib = compound: COc1cccc(OCCCN)c1-c1cc(Nc2cnc(C#N)cn2)n[nH]1 [Prexasertib]; settings: max 1 µM
Outline: as §1

Doxorubicin = compound: COc1cccc2c1C(=O)c1c(O)c3c(c(O)c1C2=O)C[C@@](O)(C(=O)CO)C[C@@H]3O[C@H]1C[C@H](N)[C@H](O)[C@H](C)O1 [Doxorubicin]; settings: max 1 µM
Outline: as §1

AZD5153 = compound: COc1nnc2ccc(N3CCC(c4ccc(OCCN5CCN(C)C(=O)[C@H]5C)cc4)CC3)nn12 [AZD5153]; settings: max 1 µM
Outline: as §1

Lapatinib = compound: CS(=O)(=O)CCNCc1ccc(-c2ccc3ncnc(Nc4ccc(OCc5cccc(F)c5)c(Cl)c4)c3c2)o1 [Lapatinib]; settings: max 10 µM
Outline: as §1

AZD8186 = compound: C[C@@H](Nc1cc(F)cc(F)c1)c1cc(C(=O)N(C)C)cc2c(=O)cc(N3CCOCC3)oc12 [AZD8186]; settings: max 10 µM
Outline: as §1

Crizotinib = compound: C[C@@H](Oc1cc(-c2cnn(C3CCNCC3)c2)cnc1N)c1c(Cl)ccc(F)c1Cl [Crizotinib]; settings: max 10 µM
Outline: as §1

Savolitinib = compound: C[C@@H](c1ccc2nccn2c1)n1nnc2ncc(-c3cnn(C)c3)nc21 [Savolitinib]; settings: max 1 µM
Outline: as §1

AZD6738 = compound: C[C@@H]1COCCN1C2=NC(=NC(=C2)C3(CC3)[S@](=N)(=O)C)C4=C5C=CNC5=NC=C4 [AZD6738]; settings: max 10 µM
Outline: as §1

AZD5991 = compound: Cc1c2c(nn1C)CSCc1cc(n(C)n1)CSc1cc(c3ccccc3c1)OCCCc1c(C(=O)O)n(C)c3c-2c(Cl)ccc13 [AZD5991]; settings: max 1 µM
Outline: as §1

AZD7648 = compound: Cc1cc2ncnn2cc1Nc1ncc2c(n1)n(C1CCOCC1)c(=O)n2C [AZD7648]; settings: max 10 µM
Outline: as §1

Taselisib = compound: Cc1nc(-c2cn3c(n2)-c2ccc(-c4cnn(C(C)(C)C(N)=O)c4)cc2OCC3)n(C(C)C)n1 [Taselisib]; settings: max 10 µM
Outline: as §1

Selumetinib = compound: Cn1cnc2c(F)c(Nc3ccc(Br)cc3Cl)c(C(=O)NOCCO)cc21 [Selumetinib]; settings: max 10 µM
Outline: as §1

SRA737 = compound: N#Cc1cnc(Nc2cc(NC[C@H]3CNCCO3)c(C(F)(F)F)cn2)cn1 [SRA737]; settings: max 10 µM
Outline: as §1

MK-2206 = compound: NC1(c2ccc(-c3nc4ccn5c(=O)[nH]nc5c4cc3-c3ccccc3)cc2)CCC1 [MK-2206]; settings: max 10 µM
Outline: as §1

Gemcitabine = compound: Nc1ccn([C@@H]2O[C@H](CO)[C@@H](O)C2(F)F)c(=O)n1 [Gemcitabine]; settings: max 0.3 µM
Outline: as §1

[1] = compound: O=C(Nc1ccc2[nH]nc(-c3ccncc3)c2c1)[C@@H]1CCN(CC(=O)N2CCN(c3ccc(-c4ncccn4)cc3)CC2)C1; settings: max 5 µM
Outline: as §1

Olaparib = compound: O=C(c1cc(Cc2n[nH]c(=O)c3ccccc23)ccc1F)N1CCN(C(=O)C2CC2)CC1 [Olaparib]; settings: max 10 µM
Outline: as §1

5-Fluorouracil = compound: O=c1[nH]cc(F)c(=O)[nH]1 [5-Fluorouracil]; settings: max 20 µM
Outline: as §1

## SUP-T1 (T-Lymphoblastic Leukemia)
Carboplatin
  IC50, cell viability 72 h: > 10000 nM
AZD5363
  IC50, cell viability 72 h: 3600 nM
AZD1775
  IC50, cell viability 72 h: 272 nM
Trametinib
  IC50, cell viability 72 h: > 1000 nM
Paclitaxel
  IC50, cell viability 72 h: 13.6 nM
Palbociclib
  IC50, cell viability 72 h: 2360 nM
AZD1390
  IC50, cell viability 72 h: > 300 nM
Venetoclax
  IC50, cell viability 72 h: > 1000 nM
Dasatinib
  IC50, cell viability 72 h: > 2000 nM
SG3199
  IC50, cell viability 72 h: > 1 nM
AZD2811
  IC50, cell viability 72 h: > 1000 nM
SN-38
  IC50, cell viability 72 h: 3.19 nM
AZD0156
  IC50, cell viability 72 h: > 3000 nM
AZD4320
  IC50, cell viability 72 h: > 1000 nM
Alisertib
  IC50, cell viability 72 h: 1590 nM
Etoposide
  IC50, cell viability 72 h: 805 nM
Gefitinib
  IC50, cell viability 72 h: > 10000 nM
Prexasertib
  IC50, cell viability 72 h: 21.8 nM
Doxorubicin
  IC50, cell viability 72 h: 145 nM
AZD5153
  IC50, cell viability 72 h: 117 nM
Lapatinib
  IC50, cell viability 72 h: > 10000 nM
AZD8186
  IC50, cell viability 72 h: > 10000 nM
Crizotinib
  IC50, cell viability 72 h: 2730 nM
Savolitinib
  IC50, cell viability 72 h: > 1000 nM
AZD6738
  IC50, cell viability 72 h: 3280 nM
AZD5991
  IC50, cell viability 72 h: > 1000 nM
AZD7648
  IC50, cell viability 72 h: > 10000 nM
Taselisib
  IC50, cell viability 72 h: 1730 nM
Selumetinib
  IC50, cell viability 72 h: > 10000 nM
SRA737
  IC50, cell viability 72 h: 7670 nM
MK-2206
  IC50, cell viability 72 h: 7710 nM
Gemcitabine
  IC50, cell viability 72 h: 16.7 nM
[1]
  IC50, cell viability 72 h: > 5000 nM
Olaparib
  IC50, cell viability 72 h: > 10000 nM
5-Fluorouracil
  IC50, cell viability 72 h: > 20000 nM
